This is an account of results in patent US11938122B2, “5-[[4-[2-[5-(1-hydroxyethyl)pyridin-2-yl]ethoxy]phenyl]methyl]-1,3- thiazolidine-2,4-dione for treating nonalcoholic fatty liver disease” (Minoryx Therapeutics S.L., priority 2016, dated 2024).

Bounds are passed on as bounds.

For one data set, the target named is T1, CYP2A6 (Homo sapiens, UniProt P11509).
T1 construct: in incubations with a pool of human liver microsomes; from tissue; host or cells: pooled human liver microsomes
T1 sequence (P11509 1-494): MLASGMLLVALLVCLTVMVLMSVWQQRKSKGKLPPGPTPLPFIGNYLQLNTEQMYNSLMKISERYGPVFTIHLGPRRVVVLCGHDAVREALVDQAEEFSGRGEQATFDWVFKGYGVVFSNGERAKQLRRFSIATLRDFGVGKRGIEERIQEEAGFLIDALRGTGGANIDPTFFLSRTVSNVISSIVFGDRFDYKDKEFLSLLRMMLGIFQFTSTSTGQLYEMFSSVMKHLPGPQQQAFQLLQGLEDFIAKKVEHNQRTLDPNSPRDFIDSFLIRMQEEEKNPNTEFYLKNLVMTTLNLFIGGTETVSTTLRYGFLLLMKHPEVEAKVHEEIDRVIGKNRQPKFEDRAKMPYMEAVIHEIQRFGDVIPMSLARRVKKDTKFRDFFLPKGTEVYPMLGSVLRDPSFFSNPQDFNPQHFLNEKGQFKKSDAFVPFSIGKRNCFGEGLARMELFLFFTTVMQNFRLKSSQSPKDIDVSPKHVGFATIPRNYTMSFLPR
As to the kind of experiment: CYP inhibition, cocktail incubation, pooled human liver microsomes. The settings on record: reaction 7OH-COU. The data set is classed as in vitro ADME. How it is done: (§1) Inhibition was screened using a cocktail incubation with CYP specific substrates for eight major drug metabolizing CYP enzymes (CYPs 1A2, 2A6, 2B6, 2C8, 2C9, 2C19, 2D6 and 3A4) in incubations with a pool of human liver microsomes. In reversible inhibition, MIN-102 was incubated with buffer, microsomes, cofactor NADPH and CYP-specific substrate cocktail mix for 15 min. In TDI study, buffer and microsomes were preincubated with MIN-102 in the presence and absence of cofactor NADPH for 0 or 30 min to elucidate the possible time-dependency of inhibition. Secondary incubation was conducted with CYP-specific substrate cocktail mix for 30 min. MIN-102 was used at final concentrations of 0.01, 0.1, 1, 10, and 100 μM in both assays.

For a further data set, the target named is T2, CYP2B6 (Homo sapiens, UniProt P20813).
T2 construct: in incubations with a pool of human liver microsomes; from tissue; host or cells: pooled human liver microsomes
T2 sequence (P20813 1-491): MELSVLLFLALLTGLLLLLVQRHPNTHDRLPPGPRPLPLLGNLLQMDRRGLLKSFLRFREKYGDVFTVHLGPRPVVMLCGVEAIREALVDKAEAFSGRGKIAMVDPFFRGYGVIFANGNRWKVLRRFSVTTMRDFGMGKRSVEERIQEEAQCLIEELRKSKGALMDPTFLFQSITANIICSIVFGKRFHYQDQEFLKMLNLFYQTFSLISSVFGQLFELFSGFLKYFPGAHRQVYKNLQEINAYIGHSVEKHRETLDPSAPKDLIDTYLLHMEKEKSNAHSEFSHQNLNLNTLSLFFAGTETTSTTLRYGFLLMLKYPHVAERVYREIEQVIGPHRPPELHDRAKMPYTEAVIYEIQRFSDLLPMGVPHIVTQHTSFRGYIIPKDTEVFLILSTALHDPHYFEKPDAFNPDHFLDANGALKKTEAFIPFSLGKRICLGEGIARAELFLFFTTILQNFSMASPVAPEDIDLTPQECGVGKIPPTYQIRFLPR
Described as above. It counts as in vitro ADME. The conditions noted are these: reaction OH-BUP. How it is done: as §1

The target in the next data set is T3, CYP2C19 (Homo sapiens, UniProt P33261).
T3 construct: in incubations with a pool of human liver microsomes; from tissue; host or cells: pooled human liver microsomes
Described as above. It counts as in vitro ADME. How it is done: as §1

Another data set concerns the target T4, CYP2C8 (Homo sapiens, UniProt P10632).
T4 construct: in incubations with a pool of human liver microsomes; from tissue; host or cells: pooled human liver microsomes
T4 sequence (P10632 1-490): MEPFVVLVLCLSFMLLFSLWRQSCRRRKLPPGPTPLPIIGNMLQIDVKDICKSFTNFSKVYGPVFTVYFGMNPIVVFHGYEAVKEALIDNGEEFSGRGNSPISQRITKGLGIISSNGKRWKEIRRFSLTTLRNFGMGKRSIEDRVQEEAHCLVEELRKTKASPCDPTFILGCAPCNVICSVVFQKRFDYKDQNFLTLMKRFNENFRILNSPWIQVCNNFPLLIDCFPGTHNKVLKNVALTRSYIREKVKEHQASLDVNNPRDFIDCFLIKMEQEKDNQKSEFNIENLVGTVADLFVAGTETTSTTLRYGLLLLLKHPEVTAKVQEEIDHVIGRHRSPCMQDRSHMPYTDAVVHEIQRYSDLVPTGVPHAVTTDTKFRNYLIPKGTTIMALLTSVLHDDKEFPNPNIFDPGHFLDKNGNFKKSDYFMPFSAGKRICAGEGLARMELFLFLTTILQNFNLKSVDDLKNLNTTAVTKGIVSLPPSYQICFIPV
The description is as above. The data set is classed as in vitro ADME. The settings on record: reaction OH-REPA. The protocol: as §1

The target of another data set is T5, CYP2C9 (Homo sapiens, UniProt P11712).
T5 construct: in incubations with a pool of human liver microsomes; from tissue; host or cells: pooled human liver microsomes
The description is as above. It counts as in vitro ADME. The conditions noted are these: reaction OH-DICL. The protocol: as §1

The next data set has as its target T6, CYP2D6 (Homo sapiens, UniProt P10635).
T6 construct: in incubations with a pool of human liver microsomes; from tissue; host or cells: pooled human liver microsomes
The description is as above. It counts as in vitro ADME. The conditions noted are these: reaction O-dem-DEX. The protocol:
as §1

For a further data set, the system named is CYP3A4. Nature of the data set: CYP induction in cryopreserved human hepatocytes. It counts as in vitro ADME. The settings on record: 50 μM, hepatocytes from 3 human donors.
In the next data set the test system is EAE mouse model. As to the kind of experiment: Experimental autoimmune encephalitis (EAE) mouse model. The settings on record: EAE mice, highest dose (125 mg/Kg/day oral, bid). The data set is classed as in vivo. An excerpt:
The anti-inflammatory potential of MIN-102 was studied using an EAE mouse model, e.g., as described in Linker and Lee, Experimental & Translational Stroke Medicine 1:5 (2009). This model for neuroinflammation is a highly reproducible and long established model of multiple sclerosis. The model is based on the induction of an autoimmune reaction upon the exposure of the animals to myelin antigens. Several days after inoculation, e.g., 9-12 days, the mouse develops a relapsing-remitting or chronic disease course.
In the study, female C57Bl/6 mice were sensitized by a subcutaneous injection of myelin oligodendrocyte glycoprotein peptide fragment 35-55 (MOG35-55) in Freund's Complete Adjuvant (CFA) at the tail base. Starting at five days after disease induction, the animals were treated at three different oral doses of MIN-102, 17, 50, and 125 mg/Kg/day, using bid administration. From day five, the animals were weighed and scored for the appearance of disease symptoms. The levels of neutrophils were measured in mice from the naïve, vehicle, and the highest MIN-102 dose. Data were analyzed by one-way ANOVA followed by the Dunnett's post-hoc test versus the vehicle group (*, p <0.05). Results are presented as mean+standard error of the mean of n=10, except n=9 for the highest dose of MIN-102, and n=4 for the naïve group.

Data set [1] is described as follows: MIN-102 single oral dose (SAD) pharmacokinetics in healthy subjects. The settings on record: human, in vivo, some doses.

T5 sequence (P11712 whole entry): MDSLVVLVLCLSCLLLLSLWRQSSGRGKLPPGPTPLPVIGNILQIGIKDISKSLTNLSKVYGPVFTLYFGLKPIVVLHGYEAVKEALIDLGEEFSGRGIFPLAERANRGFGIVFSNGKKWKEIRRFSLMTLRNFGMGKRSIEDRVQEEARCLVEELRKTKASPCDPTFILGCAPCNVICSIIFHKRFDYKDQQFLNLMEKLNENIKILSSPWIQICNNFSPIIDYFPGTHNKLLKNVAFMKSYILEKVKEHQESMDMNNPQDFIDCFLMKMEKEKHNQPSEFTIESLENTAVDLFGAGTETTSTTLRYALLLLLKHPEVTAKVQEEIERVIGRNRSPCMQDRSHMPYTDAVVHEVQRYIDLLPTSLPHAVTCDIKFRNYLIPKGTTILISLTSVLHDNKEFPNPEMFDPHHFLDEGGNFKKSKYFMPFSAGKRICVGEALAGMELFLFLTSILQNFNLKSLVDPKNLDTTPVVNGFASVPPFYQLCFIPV
T3 sequence (P33261 whole entry): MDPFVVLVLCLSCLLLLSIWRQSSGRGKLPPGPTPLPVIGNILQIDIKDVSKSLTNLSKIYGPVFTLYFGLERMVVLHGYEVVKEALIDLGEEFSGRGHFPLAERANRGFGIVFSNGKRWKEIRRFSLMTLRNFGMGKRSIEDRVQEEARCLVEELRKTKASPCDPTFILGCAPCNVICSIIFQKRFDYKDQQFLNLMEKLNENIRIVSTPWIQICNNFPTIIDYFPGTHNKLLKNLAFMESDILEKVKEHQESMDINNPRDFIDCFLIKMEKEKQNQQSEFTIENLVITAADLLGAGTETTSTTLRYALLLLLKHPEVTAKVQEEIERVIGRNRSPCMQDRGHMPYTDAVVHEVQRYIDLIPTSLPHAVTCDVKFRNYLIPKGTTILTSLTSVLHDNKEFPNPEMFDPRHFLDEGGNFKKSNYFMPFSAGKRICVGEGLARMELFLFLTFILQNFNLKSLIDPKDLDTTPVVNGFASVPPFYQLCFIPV
T6 sequence (P10635 whole entry): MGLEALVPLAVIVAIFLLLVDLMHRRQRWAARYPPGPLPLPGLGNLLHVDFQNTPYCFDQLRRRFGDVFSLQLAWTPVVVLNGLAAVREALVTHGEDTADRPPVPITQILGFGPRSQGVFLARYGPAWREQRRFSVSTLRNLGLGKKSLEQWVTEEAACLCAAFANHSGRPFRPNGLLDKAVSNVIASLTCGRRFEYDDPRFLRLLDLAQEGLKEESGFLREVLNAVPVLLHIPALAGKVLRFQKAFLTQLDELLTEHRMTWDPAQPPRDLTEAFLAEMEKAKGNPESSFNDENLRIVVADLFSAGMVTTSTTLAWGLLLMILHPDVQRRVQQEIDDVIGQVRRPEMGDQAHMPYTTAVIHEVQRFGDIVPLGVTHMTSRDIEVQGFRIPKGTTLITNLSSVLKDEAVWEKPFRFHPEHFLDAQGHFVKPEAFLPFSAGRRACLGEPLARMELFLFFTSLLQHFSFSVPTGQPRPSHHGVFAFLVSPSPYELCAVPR

With `CC(O)c1ccc(CCOc2ccc(CC3SC(=O)NC3=O)cc2)nc1` (racemic) [MIN-102, 5-[[4-[2-[5-(1-hydroxyethyl)pyridin-2-yl]ethoxy]phenyl]methyl]-1,3-thiazolidine-2,4-dione], the IC50 against CYP2A6 is greater than 100 µM; at CYP2B6, greater than 100 µM; against CYP2C19 (reaction 5-OH-OME), greater than 100 µM; on CYP2C19 (reaction dem-OME), greater than 100 µM; against CYP2C8 it was 102 µM; at CYP2C9, 103 µM. At CYP2D6, the IC50 was greater than 100 µM. Besides, the Ki at CYP2C8 (read-out: Tentative Ki) amounted to 84 µM; at CYP2C9 (read-out: Tentative Ki), 52 µM. Also, the “increase in CYP3A4 mRNA” value in the data set with CYP3A4 is “less than 20 % of the respective positive control induction”. Besides, the “increase in activity of CYP3A4 probe reaction” value in the data set with CYP3A4 is “less than 20 % of the respective positive control induction”. Also, the Lymphocyte number in the data set with EAE mouse model is given as 3.6 ± 2.3 ×10^3 cells/μl. In the data set with EAE mouse model, the N/L ratio is 0.52. Moreover, the Neutrophil number with EAE mouse model is reported as 1.9 ± 0.6 ×10^3 cells/μl. For the same molecule, in [1], the AUC(0-inf) was in the range of 20 to 400 µg·h/mL.
